Results on 1 molecule are retold here after patent publication US12539299B2, “Oral formulation of a therapeutic compound” (ARDELYX, INC., priority 2020, dated 2026).

Series [1] in a line: Dissolution of capsule and tablet prototypes, USP apparatus II (paddle), 75 rpm, 900 mL media, 37° C. It is filed as physicochemical. As to conditions: comparison between forms, prototypes or pH. On the procedure:
FIG. 1: Dissolution of 15 mg tenapanor HCl tablets and tenapanor free base tablets in FeSSIF media pH 5.0. Dissolution method: USP apparatus II (paddle), 75 rpm, 900 mL of media at 37° C. FIG. 2: Dissolution of capsule I, neat tenapanor HCl powder in HPMC capsules (Vcaps® from Capsugel®) in FaSSIF media pH 6.5, FeSSIF media pH 5 and in 0.1N HCl. Dissolution method: USP apparatus II (paddle), 75 rpm, 900 mL of media at 37° C. […] Below are the composition of some of the capsule and tablet formulations as well as maximum dissolution observed in 0.1N HCl, pH 5 FeSSIF media and pH 6 FaSSIF media. Tablets from the same prototype designation differed by tenapanor loading and salt/free-base form but had the same disintegrant, glidant and lubricant excipients in the same % w/w but varied in the % w/w of tenapanor and filler making up the remainder of tablet.

In series [2] the test system is Irritable Bowel Syndrome with Constipation (IBS-C) patients. As to conditions: bis-HCl salt form, clinical; cited from earlier work.
Series [3] deals with animal model of IBS-like colonic hypersensitivity. As to conditions: cited from earlier work.
For series [4], the system named is patients with hyperphosphatemia. As to conditions: clinical; cited from earlier work.

On to `CN1Cc2c(Cl)cc(Cl)cc2[C@H](c2cccc(S(=O)(=O)NCCOCCOCCNC(=O)NCCCCNC(=O)NCCOCCOCCNS(=O)(=O)c3cccc([C@@H]4CN(C)Cc5c(Cl)cc(Cl)cc54)c3)c2)C1` [tenapanor, 1-[2-[2-[2-[[3-[(4S)-6,8-dichloro-2-methyl-3,4-dihydro-1H-isoquinolin-4-yl]phenyl]sulfonylamino]ethoxy]ethoxy]ethyl]-3-[4-[2-[2-[2-[[3-[(4S)-6,8-dichloro-2-methyl-3,4-dihydro-1H-isoquinolin-4-yl]phenyl]sulfonylamino]ethoxy]ethoxy]ethylcarbamoylamino]butyl]urea], for which the “dissolution, comparison in words” value in series [1] is on record as “better dissolution at low pH”. Also, the abdominal pain result in series [2] is given as “reduce abdominal pain”. In series [3], the “colonic sensory neuronal excitability and TRPV1 currents” value is “normalized colonic sensory neuronal excitability and Transient Receptor Potential Vanilloid 1 (TRPV1) currents”; the visceral hyperalgesia entry is listed as “reduced visceral hyperalgesia”. For the same molecule, the serum phosphate entry in series [4] is “lower serum phosphate”.
